Experimental data taken from PMC9281440, “In Vivo Distribution and Therapeutic Efficacy of Radioiodine-Labeled pH-Low Insertion Peptide Variant 3 in a Mouse Model of Breast Cancer” (Molecular Imaging, 2022).
Like-named read-outs stand apart in the source and are kept apart here. Peptide text beside a SMILES is read from it.

Columns and labels:
[1] = In vitro stability of radiolabeled peptides in serum at 37°C; format: in vitro ADME; details: 37°C in serum, radiochemical purity, thin-layer chromatography
Method: WT-pHLIP and Var3-pHLIP were labeled with ^125I for in vivo imaging experiments, and Var3-pHLIP was labeled with ^131I for therapeutic efficacy experiments. Radioactive iodine binds to tyrosine residues in pHLIPs. Peptides were dissolved in 200 μL of 0.02 M PBS (pH 7.4) to reach a concentration of 1 mg/mL and mixed with 10 μL of Na^125I (74 MBq) or 20 μL of Na^131I (925 MBq). Chloramine-T (20 μL, 5 mg/mL) was added to the test tubes and mixed for 70 s at room temperature. The reaction was stopped by adding 200 μL of sodium metabisulfite (5 mg/mL). The peptides were eluted in ethanol through a C18 column equilibrated with 20 mL of 100% ethanol and 20 mL of distilled water. The radioactive purity of ^125I-WT-pHLIP, ^125I-Var3-pHLIP, and ^131I-Var3-pHLIP was determined using thin-layer chromatography. Furthermore, the radiochemical purity of ^125I-WT-pHLIP, ^125I-Var3-pHLIP, and ^131I-Var3-pHLIP was measured, and chemical stability was determined at 24 and 48 h at room temperature (25°C) in PBS and at 37°C in serum.

MDA-MB-231 cells = experiment: In vitro cell binding assay of 125I-labeled peptides; format: cell-based, human; details: 37°C, mean ± SD, triplicate; for binding fraction to cells, B/(B + F) × 100%: γ counter
Method: Cells were incubated with ^125I-WT-pHLIP or ^125I-Var3-pHLIP for 1 h at 37°C in the medium at different pH values ranging from 6.2 to 7.8 (6.2, 6.6, 7.0, 7.4, 7.8). At the same time, cells in the medium at pH 6.2 were further incubated with ^125I-labeled peptide with an excess of unlabeled peptide (25 μg/well). The supernatant was aspirated into a tube. The cells were then washed twice with PBS of the corresponding pH to remove unbound radioactivity. The wash solution was also added to the supernatant tube containing free radioactivity (F). The cells with bound radioactivity (B) were completely lysed with 300 μl sodium hydroxide and aspirated into a cell tube. The radioactive counts of the cell and supernatant tube were measured by a γ counter. The cell binding fraction of the ^125I-labeled peptides was calculated as B/(B + F) × 100%. All experiments were performed in triplicate.

[2] = Micro-SPECT/CT imaging and distribution of 125I-labeled pHLIPs; format: in vivo; details: female, mouse, total radioactivity, 4T1 tumor-bearing nude mice, 3.7 MBq iv, micro-SPECT/CT ROI, mean ± SD, n = 4; for tissue uptake at 4 h: 4 h pi; for tissue uptake at 24 h: 24 h pi; for tissue uptake at 48 h: 48 h pi; for tissue uptake at 1 h: 1 h pi; for tissue uptake at 2 h: 2 h pi
Method: Five-week-old female athymic BALB/c nude mice (Shanghai Slaccas Experiment Animal Corp., Shanghai, China) were used in our study. Mouse xenograft models of MDA-MB-231, 4T1, and SK-BR-3 cells were produced by the subcutaneous injection of 5 × 10^6 cells (suspended in 150 μL PBS) into the right axilla of each mouse. The mice were used in subsequent experiments when tumor diameter reached 0.5-0.9 cm. The study protocol was approved by the institutional review board and by the Experimental Animal Center of Ruijin Hospital affiliated to the School of Medicine of Shanghai Jiao Tong University.
Three days before micro-SPECT/CT imaging, 300 μL of 1% Kl solution was administered to mice by oral gavage once a day, and 0.1% Kl was added into the drinking water to block thyroid gland activity. Mice-bearing MDA-MB-231, 4T1, or SK-BR-3 tumors were intravenously injected with 3.7 MBq of ^125I-WT-pHLIP or ^125I-Var3-pHLIP. Each group contained four mice. The mice were anesthetized by isoflurane inhalation, placed in the prone position, and scanned using a four-head SPECT/CT system (U-SPECT/CT, MI-Lab, Netherlands) and dedicated multipinhole apertures with a diameter of 1.5 mm at 1, 2, 4, 24, and 48 h after injection of ^125I-labeled peptides. CT images were acquired after static SPECT imaging (10 min/frame). The images were reconstructed using U-SPECT REC software and analyzed using PMOD software version 3.9 (Switzerland). Regions of interest (ROIs) were drawn in the tumors and organs, including the brain, heart, liver, lungs, kidneys, intestine, and bladder, at various time points. The radioactivity per gram (ID%/g) in the ROIs was measured to obtain the dynamic tumor-to-background ratio (TBR, muscle tissue was used as the background) and the in vivo distribution and kinetics of ^125I-WT-pHLIP and ^125I-Var3-pHLIP in the xenograft models of BC.

[3] = BALB/c nude, read-out: Distribution, Tumor
[4] = athymic BALB/c nude, bladder, read-out: Distribution, Bladder
[5] = athymic BALB/c nude, brain, read-out: Distribution, Brain
[6] = athymic BALB/c nude, heart, read-out: Distribution, Heart
[7] = athymic BALB/c nude, intestine, read-out: Distribution, Intestine
[8] = athymic BALB/c nude, kidney, read-out: Distribution, Kidney
[9] = athymic BALB/c nude, liver, read-out: Distribution, Liver
[10] = athymic BALB/c nude, lung, read-out: Distribution, Lung
[11] = athymic BALB/c nude, muscle, read-out: Distribution, Muscle

With `CC(C)C[C@H](NC(=O)[C@H](Cc1ccc(O)c(I)c1)NC(=O)[C@H](C)NC(=O)[C@H](CCCNC(=N)N)NC(=O)[C@H](Cc1c[nH]c2ccccc12)NC(=O)[C@@H]1CCCN1C(=O)[C@H](CC(N)=O)NC(=O)[C@H](CCC(N)=O)NC(=O)[C@H](CC(=O)O)NC(=O)[C@H](CC(=O)O)NC(=O)[C@H](CS)NC(=O)[C@H](C)N)C(=O)N[C@@H](CC(=O)O)C(=O)N[C@@H](CC(C)C)C(=O)N[C@@H](CC(C)C)C(=O)N[C@@H](Cc1ccccc1)C(=O)N1CCC[C@H]1C(=O)N[C@H](C(=O)N[C@@H](CC(=O)O)C(=O)N[C@H](C(=O)N[C@@H](CC(C)C)C(=O)N[C@@H](CC(C)C)C(=O)N[C@@H](CC(C)C)C(=O)N[C@@H](CC(=O)O)C(=O)N[C@@H](CC(C)C)C(=O)N[C@@H](CC(C)C)C(=O)N[C@@H](Cc1c[nH]c2ccccc12)C(=O)N[C@@H](CCCCN)C(=O)O)[C@@H](C)O)[C@@H](C)O` [125I-Var3-pHLIP] (HELM PEPTIDE1{A.C.D.D.Q.N.P.W.R.A.[O=C([C@H](Cc1ccc(O)c(I)c1)N[*:1])[*:2]].L.D.L.L.F.P.T.D.T.L.L.L.D.L.L.W.K}$$$$V2.0; N-terminus and C-terminus assumed) as the compound, how does the stability ([1]; 24 h) read?
Its stability is 83.2%.

What about the stability ([1]; 48 h) of the same compound?
Its stability is 82.6%.

What about the “binding fraction to cells, B/(B + F) × 100%” value (MDA-MB-231 cells; pH 6.2, 1 h) of the same compound?
Its value is 24.90 ± 0.96%.

And the “binding fraction to cells with an excess of unlabeled peptide” value (MDA-MB-231 cells; pH 6.2, excess unlabeled peptide 25 μg/well)?
The value was 1.50 ± 0.11%.

What about the “binding fraction to cells, B/(B + F) × 100%” value (MDA-MB-231 cells; pH 6.6, 1 h) of the same compound?
The value was 23.88 ± 0.55%.

And the “binding fraction to cells, B/(B + F) × 100%” value (MDA-MB-231 cells; pH 7.0, 1 h)?
The value was 23.40 ± 0.44%.

And the “binding fraction to cells, B/(B + F) × 100%” value (MDA-MB-231 cells; pH 7.4, 1 h)?
The value was 12.3 ± 0.80%.

What about the “binding fraction to cells, B/(B + F) × 100%” value (MDA-MB-231 cells; pH 7.8, 1 h) of the same compound?
Its value is 1.30 ± 0.10%.

What about the tissue uptake at 4 h [2, 3] of the same compound?
Its tissue uptake at 4 h is 3.4 ± 0.73 %ID/g.

And the tissue uptake at 24 h [2, 3]?
The tissue uptake at 24 h was 0.21 ± 0.07 %ID/g.

And the tissue uptake at 48 h [2, 3]?
Its tissue uptake at 48 h is 0.12 ± 0.04 %ID/g.

And the tissue uptake at 1 h [2, 4]?
Its tissue uptake at 1 h is 33.7 ± 21.1 %ID/g.

And the tissue uptake at 2 h [2, 4]?
Its tissue uptake at 2 h is 24.9 ± 10.8 %ID/g.

What about the tissue uptake at 4 h [2, 4] of the same compound?
Its tissue uptake at 4 h is 42.7 ± 17.6 %ID/g.

And the tissue uptake at 24 h [2, 4]?
Its tissue uptake at 24 h is 2.83 ± 1.65 %ID/g.

And the tissue uptake at 48 h [2, 4]?
The tissue uptake at 48 h was 0.21 ± 0.13 %ID/g.

And the tissue uptake at 1 h [2, 5]?
Its tissue uptake at 1 h is 1.44 ± 0.24 %ID/g.

What about the tissue uptake at 2 h [2, 5] of the same compound?
Its tissue uptake at 2 h is 1.32 ± 0.49 %ID/g.

What about the tissue uptake at 4 h [2, 5] of the same compound?
Its tissue uptake at 4 h is 1.04 ± 0.47 %ID/g.

What about the tissue uptake at 24 h [2, 5] of the same compound?
Its tissue uptake at 24 h is 0.16 ± 0.1 %ID/g.

And the tissue uptake at 48 h [2, 5]?
Its tissue uptake at 48 h is 0.13 ± 0.09 %ID/g.

And the tissue uptake at 1 h [2, 6]?
The tissue uptake at 1 h was 14.4 ± 2.44 %ID/g.

And the tissue uptake at 2 h [2, 6]?
Its tissue uptake at 2 h is 11 ± 2.39 %ID/g.

What about the tissue uptake at 4 h [2, 6] of the same compound?
The tissue uptake at 4 h was 8.21 ± 2.03 %ID/g.

And the tissue uptake at 24 h [2, 6]?
Its tissue uptake at 24 h is 0.36 ± 0.16 %ID/g.

And the tissue uptake at 48 h [2, 6]?
Its tissue uptake at 48 h is 0.17 ± 0.05 %ID/g.

What about the tissue uptake at 1 h [2, 7] of the same compound?
Its tissue uptake at 1 h is 3.65 ± 0.64 %ID/g.

What about the tissue uptake at 2 h [2, 7] of the same compound?
The tissue uptake at 2 h was 3.63 ± 1.19 %ID/g.

What about the tissue uptake at 4 h [2, 7] of the same compound?
Its tissue uptake at 4 h is 3.23 ± 0.7 %ID/g.

What about the tissue uptake at 24 h [2, 7] of the same compound?
Its tissue uptake at 24 h is 0.28 ± 0.15 %ID/g.

What about the tissue uptake at 48 h [2, 7] of the same compound?
Its tissue uptake at 48 h is 0.14 ± 0.11 %ID/g.

And the tissue uptake at 1 h [2, 8]?
The tissue uptake at 1 h was 7.98 ± 3.12 %ID/g.

What about the tissue uptake at 2 h [2, 8] of the same compound?
Its tissue uptake at 2 h is 7.97 ± 2.23 %ID/g.

And the tissue uptake at 4 h [2, 8]?
Its tissue uptake at 4 h is 4.99 ± 2.04 %ID/g.

What about the tissue uptake at 24 h [2, 8] of the same compound?
Its tissue uptake at 24 h is 0.39 ± 0.3 %ID/g.

What about the tissue uptake at 48 h [2, 8] of the same compound?
The tissue uptake at 48 h was 0.2 ± 0.13 %ID/g.

What about the tissue uptake at 1 h [2, 9] of the same compound?
Its tissue uptake at 1 h is 14.9 ± 3.55 %ID/g.

And the tissue uptake at 2 h [2, 9]?
The tissue uptake at 2 h was 13.2 ± 2.28 %ID/g.

And the tissue uptake at 4 h [2, 9]?
The tissue uptake at 4 h was 12.6 ± 3.61 %ID/g.

What about the tissue uptake at 24 h [2, 9] of the same compound?
The tissue uptake at 24 h was 0.6 ± 0.16 %ID/g.

What about the tissue uptake at 48 h [2, 9] of the same compound?
The tissue uptake at 48 h was 0.23 ± 0.04 %ID/g.

And the tissue uptake at 1 h [2, 10]?
The tissue uptake at 1 h was 13.8 ± 3.09 %ID/g.

What about the tissue uptake at 2 h [2, 10] of the same compound?
Its tissue uptake at 2 h is 11.3 ± 3.09 %ID/g.

What about the tissue uptake at 4 h [2, 10] of the same compound?
The tissue uptake at 4 h was 9.4 ± 2.45 %ID/g.

And the tissue uptake at 24 h [2, 10]?
Its tissue uptake at 24 h is 0.48 ± 0.15 %ID/g.

What about the tissue uptake at 48 h [2, 10] of the same compound?
The tissue uptake at 48 h was 0.19 ± 0.1 %ID/g.

And the tissue uptake at 1 h [2, 11]?
The tissue uptake at 1 h was 1.41 ± 0.61 %ID/g.

And the tissue uptake at 2 h [2, 11]?
The tissue uptake at 2 h was 1.03 ± 0.19 %ID/g.

And the tissue uptake at 4 h [2, 11]?
The tissue uptake at 4 h was 0.8 ± 0.26 %ID/g.

And the tissue uptake at 24 h [2, 11]?
The tissue uptake at 24 h was 0.06 ± 0.04 %ID/g.

And the tissue uptake at 48 h [2, 11]?
Its tissue uptake at 48 h is 0.03 ± 0.03 %ID/g.

What about the tissue uptake at 1 h ([2]; athymic BALB/c nude, read-out: Distribution, Tumor) of the same compound?
Its tissue uptake at 1 h is 4.26 ± 1.24 %ID/g.
